From US20150080475A1, “Memantine Protects Inflammation-Related Degeneration of Dopamine Neurons Through Inhibition of Over-Activated Microglia and Release of Neurotrophic Factors From Astroglia” (priority 2009, published 2015)

Assays:
Type in all cases: cell-based
DA neurons = assay: LPS-induced dopaminergic neurotoxicity in microglia-depleted neuron-glia cultures; details: microglia depleted by LME to <1%, LPS 7 days
Protocol: To evaluate the influence of various kinds of glia contribute to effect of MMT on LPS-induced dopaminergic neurotoxicity, microglia-depleted Neuron-/glia Cultures were performed.

TH-ir neurons = assay: Cell count of TH-ir neurons in rat neuron-glia cultures
Protocol: For visual counting of TH-ir neurons after Immunostaining, nine representative areas per well of the 24-well plate were counted under the microscope at 100¥ magnification. To measure the average TH-ir dendrite, 50 TH-ir representative neurons in each well were selected and three wells for each treatment condition were selected. In addition, the average dendrite length of TH-ir neurons was measured (Liu Y X, Qin L, Wilson B C, An L, Hong J S and Liu B (2002b) Inhibition by naloxone stereoisomers of -amyloid peptide (1-42)-induced superoxide production in microglia and degeneration of cortical and mesencephalic neurons. J Pharmacol Exp Ther 302: 1212-1219.).
Rat mesencephalic neuron-glia cultures were pretreated for 30 min with vehicle or 1, 3, 10 μM MMT before adding LPS (2.5 to 5 ng/ml) to the cultures. One week later, the neurotoxic effect of LPS on DA neurons were assessed by both [H^3] DA uptake, which measures the functional capacity of high affinity uptake of DA cells and cell count of tyrosine hydroxylase-positive (TH-ir) cells. [H^3] […] MMT alone increased the uptake capacity by 30-80% in 3 and 10 μM of MMT, respectively. […] The neurotrophic effect of MMT is astrocyte-dependent. Astrocytes, not micrglia, contribute to the neurotrophic effect of MMT at 1-10 μM MMT (FIG. 10).
(§1) In addition to the pre-treatment experiments, similar studies using post-treatment designs were conducted to determine the efficacy of MMT. In these experiments, neuron-glia cultures were either treated with MMT (10 μM) and LPS (2.5 ng/ml) at the same time, or MMT was added 30, 60, 120 or 180 min after the addition of LPS. One week later, DA uptake of the culture was assayed.
DA neurons were recognized with the polyclonal antibody against tyrosine hydroxylase (TH) and microglia was detected with the OX-42 antibody against CR3 receptor. […] To quantify cell numbers, nine representative areas per well in the 24-well plate were counted under the microscope at 100× magnification by two individuals. […]

microglia = assay: Intracellular reactive oxygen species assay (DCFH oxidation) after LPS; details: 2 h after LPS
Protocol: The production of intracellular reactive oxygen species (ROS) was measured by DCFH oxidation. The DCFH-DA reagent passively enters cell where it is de-acetylated by esterase to nonfluorescent DCFH. Inside the cell, DCFH reacts with ROS to form DCF, the fluorescent product. For this assay, 10 mM DCFH-DA was dissolved in methanol and was diluted 500-fold in HBSS to give a 20 μM concentration of DCFH-DA. Enriched-microglia cultures seeded (5×10^4) in 96-well plates were then exposed to DCFH-DA for 1 h, followed by treatment with HBSS containing several concentrations of LPS or substance P for 2 h. After incubation, the fluorescence was read at the 485 nm excitation and 530 nm emission on a fluorescence plate reader. […] To calculate the amount of intracellular ROS produced, the mean control treatment was subtracted from the mean treatment group.
Neuron-glia cultures were pretreated for 30 min with MMT (3 μM) or vehicle before LPS stimulation. […] Production of superoxide (30 min after LPS) and iROS (2 h after LPS) was decreased by MMT treatment (FIGS. 6A and 6B). […] The production of PGE2 in cultures pretreated with 3 and 10 μM MMT decreased by 23% and 27% respectively (FIG. 6E).

HAPI = assay: MTT cell viability of HAPI cells with LPS; details: MMT 10 uM, LPS 100 ng/ml, 48 hrs
Protocol: HAPI was seeded with 1*10^4/well in 96-well plate. Twenty-four hours later, it was treated with vehicle, MMT (10 uM), and LPS 100 ng/ml for 48 hrs. After adding MTT, cell viability was measured (FIG. 8A) and morphology (FIG. 8B) was examined by contrast microscope. Values are mean±SEM of three independent experiments. *p<0.05, compared with LPS.

astrocyte, and micrglia = assay: BrdU cytogenesis test in rat primary midbrain neuron-glia cultures; details: 10 μM MMT, 24 hours
Protocol: Rat primary mesencephalic neuron-glia cultures seeded in a 24-well culture plate at density of 5×10^5 per well were treated with 10 μM MMT or its vehicle, and simultaneously with 1 μl Brdu seven days after seeding. 24 hours later, the cultures was fixed with 3.7% of PDF for GFAF, iba-1, and DAPI staining.
as §1

Q: For CC12CC3CC(C)(C1)CC(N)(C3)C2.Cl [MMT, 1-amino-3,5-dimethyladamantane hydrochloride], which “protective effect against LPS-induced dopaminergic neurotoxicity” value (DA neurons) is on record?
A: not found in depletion of microglia

Q: And the “effect on LPS-induced reduction in the number of TH-ir neurons” value (TH-ir neurons; MMT 3 and 10 μM)?
A: significantly attenuated the LPS-induced reduction in the number of TH-ir neurons

Q: And the “growth of neurites (morphological observation)” value (TH-ir neurons; MMT alone)?
A: enhanced the growth of neurites

Q: What about the “number of TH-ir (DA) neurons vs vehicle control” value (TH-ir neurons; MMT alone) of the same compound?
A: increased the survival DA neuron number

Q: And the “production of iROS” value (microglia)?
A: decreased

Q: And the “effect on apoptosis of activated microglia induced by LPS (MTT cell viability)” value (HAPI)?
A: lack of effect

Q: What about the “proliferation of astrocyte and microglia compared with control” value (astrocyte, and micrglia) of the same compound?
A: does not induce more proliferation
